The values that follow come from patent publication US8685981B2, “Cyclic compound having hetero atom” (Daiichi Sankyo Company, Limited, priority 2009, dated 2014).

The subject of the first experiment is ST2 cells, murine bone marrow-derived stromal cells. Description: Osteoblast differentiation test (alkaline phosphatase activity). Type of experiment: cell-based. To be noted: Mus musculus, ST-2, 96 h, at 0.03 μg/mL, four days of culturing, control group (0.1% DMSO) set at 100%, read-out: increase (%) in alkaline phosphatase activity. The method, then:
ST2 cells, murine bone marrow-derived stromal cells, (obtained from RIKEN) were used.
In this test, α-MEM media (obtained from GIBCO BRL Cat. No. 10370-021) containing 10% (v/v) of inactivated calf serum (obtained from Hyclone Laboratories, Inc.) and 1% (v/v) of Penicillin-Streptomycin Liquid (obtained from GIBCO BRL Cat. No. 15140-122) (hereinbelow, abbreviated as 10%-FBS-αMEM) were used. In this test, all culturing was performed in a CO2 incubator (37° C., 95% humidity, 5% CO2).
The aforementioned cells were detached with 2 mL of a 0.25% trypsin solution (obtained from GIBCO BRL Cat. No. 15050-065) and dispersed in 10 mL of 10%-FBS-αMEM. Subsequently, the cells were collected by centrifugation (25° C., 800 rpm, five minutes). Then, a cell suspension containing 40000 of the cells/mL of 10%-FBS-αMEM was prepared. The cell suspension was then dispensed into 96-well plates (the product of Falcon), 100 μL per well, at a density of 4000 cells/well, followed by culturing for 24 hours. To the wells except for the below-described well containing a control group, the compound was dispensed at final concentrations of 0.01, 0.03, 0.1, and 0.3 μg/ml. To the well of a control group, DMSO was dispensed at a final concentration of 0.1% (v/v). After four days of culturing, the activity of alkaline phosphatase (ALP) was measured in each group.
The measurement of ALP activity was performed as follows. That is, the medium in each well of the culture plates was completely removed. Each well was then washed by dispensing 100 μL of Dulbecco's phosphate buffer (obtained from GIBCO BRL Cat. No. 14190-144) and then removing it. A cell lysate solution containing 10 mM MgCl2 and 2% (v/v) TritonX-100 (Sigma) was prepared and dispensed at 50 μL/well, followed by stirring at room temperature for five minutes. An ALP substrate solution containing 50 mM diethanolamine (Wako pure chemical industries, Ltd., Cat. No. 099-03112) and 20 mM p-nitrophenyl phosphate (Wako pure chemical industries, Ltd., Cat. No. 147-02343) was prepared and dispensed at 50 μL/well, and the plates were left to stand at room temperature for 10 minutes. Subsequently, absorbance was measured by a microplate reader (Bio-Rad Laboratories, Inc.). Setting the measurement value of the control group of each plate at 100%, the increase (%) in alkaline phosphatase activity in the test compound-addition group was calculated, which was assessed as the degree of osteoblast differentiation.
As to `NC(=O)c1ccc2cncc(N3CCC(OCCO[C@@H]4CCOC4)CC3)c2n1` [Example 3, 8-(4-{2-[(3R)-Tetrahydrofuran-3-yloxy]ethoxy}piperidin-1-yl)-1,6-naphthyridine-2-carboxamide], the activity at 0.03 µg/mL was no less than 200%.
On the same count and under the same terms, in the case of `NC(=O)c1ccc2cncc(N3CCC(OCCO[C@H]4CCOC4)CC3)c2n1` [Example 4, 8-(4-{2-[(3S)-Tetrahydrofuran-3-yloxy]ethoxy}piperidin-1-yl)-1,6-naphthyridine-2-carboxamide] it was no less than 200%.
On the same count and under the same terms, to `NC(=O)c1ccc2cncc(N3CCN(c4ccccc4)CC3)c2c1` [Example 15, 4-(4-Phenylpiperazin-1-yl)isoquinoline-6-carboxamide] belongs no less than 200%; to `COC[C@H]1CCCN(c2cncc3ccc(C(N)=O)cc23)C1` [Example 39], no less than 200%; to `COC[C@@H]1CCCN(c2cncc3ccc(C(N)=O)cc23)C1` [Example 40], no less than 200%.
The same measure, in the same setting: in the case of `NC(=O)c1ccc2cncc(N3CCN(c4cccc(F)c4)CC3)c2n1` [Example 32] it was no less than 200%; in that of `NC(=O)c1ccc2cncc(N3CCCCC3)c2c1` [Example 16, 4-(Piperidin-1-yl)isoquinoline-6-carboxamide], no less than 200%.
On to `NC(=O)c1ccc2cncc(N3CCC(Oc4ccccc4)CC3)c2c1` [Example 64], for which the activity at 0.03 µg/mL is no less than 200%.
The same measure, in the same setting: in the case of `NC(=O)c1ccc2cncc(N3CCN(c4ccc(Cl)cc4)CC3)c2c1` [Example 49] it was no less than 200%.
On the same count and under the same terms, in the case of `COCC1CN(c2cncc3ccc(C(N)=O)cc23)CCN1c1ccccc1` (stereo not drawn) [Example 84] it was no less than 200%.
As for `NC(=O)c1ccc2cncc(N3CCC(OCCS(=O)(=O)N4CCOCC4)CC3)c2c1` [Example 97], the activity at 0.03 µg/mL is no less than 200%.
Consider `N#Cc1ccc(N2CCN(c3cncc4ccc(C(N)=O)cc34)CC2)cc1` [Example 62], for which the activity at 0.03 µg/mL is no less than 200%.
For the compound `NC(=O)c1ccc2cncc(N3CCCC3)c2c1` [Example 36], the activity at 0.03 µg/mL is no less than 200%.
As for `CN(C)C(=O)COC1CCN(c2cncc3ccc(C(N)=O)nc23)CC1` [Example 8, 8-{4-[2-(Dimethylamino)-2-oxoethoxy]piperidin-1-yl}-1,6-naphthyridine-2-carboxamide], the activity at 0.03 µg/mL was no less than 200%.
Same read-out and setting: to `CN(C)C(=O)N1CCN(c2cncc3ccc(C(N)=O)cc23)CC1` [Example 99] belongs no less than 200%; to `COCCOC1CCN(c2cncc3ccc(C(N)=O)nc23)CC1` [Example 1, 8-[4-(2-Methoxyethoxy)piperidin-1-yl]-1,6-naphthyridine-2-carboxamide], no less than 200%; to `NC(=O)c1ccc2cncc(N3CCN(C(=O)N4CCCC4)CC3)c2n1` [Example 114], no less than 200%.
Same read-out and setting: in the case of `NC(=O)c1ccc2cncc(N3CCOCC3)c2c1` [Example 35] it was no less than 200%; in that of `NC(=O)c1ccc2cncc(N3CCC(F)CC3)c2c1` [Example 45], no less than 200%; in that of `NC(=O)c1ccc2cncc(N3CCCC(COC(F)F)C3)c2c1` (stereo not drawn) [Example 103], no less than 200%.
Turning to `NC(=O)c1ccc2cncc(N3CCC(F)(F)CC3)c2c1` [Example 43], the activity at 0.03 µg/mL was no less than 200%.
Same read-out and setting: in the case of `NC(=O)c1ccc2cncc(N3CCC(OCCOC4CCOCC4)CC3)c2n1` [Example 6, 8-{4-[2-(Tetrahydro-2H-pyran-4-yloxy)ethoxy]piperidin-1-yl}-1,6-naphthyridine-2-carboxamide] it was no less than 200%; in that of `NC(=O)c1ccc2cncc(N3CCC(c4ccccc4)CC3)c2n1` [Example 83], no less than 200%.
On the same count and under the same terms, to `NC(=O)c1ccc2cncc(N3CC=C(c4ccccc4)CC3)c2c1` [Example 24, 4-(4-Phenyl-3,6-dihydropyridine-1(2H)-yl)isoquinoline-6-carboxamide] belongs no less than 200%; to `NC(=O)c1ccc2cncc(N3CCC(OCCOCCO)CC3)c2c1` [Example 85], no less than 200%.
On the same count and under the same terms, to `NC(=O)c1ccc2cncc(N3CCC(COC4CCCCO4)CC3)c2c1` (stereo not drawn) [Example 52] belongs no less than 200%; to `NC(=O)c1ccc2cncc(N3CCCCC3)c2n1` [Example 12, 8-Piperidin-1-yl-1,6-naphthyridine-2-carboxamide], no less than 200%.
Take `NC(=O)c1ccc2cncc(N3CCC(OCC4CCCO4)CC3)c2c1` (stereo not drawn) [Example 68]: the activity at 0.03 µg/mL was no less than 200%.
Still for that read-out and setting: to `CN(C)C(=O)C1CCN(c2cncc3ccc(C(N)=O)cc23)CC1` [Example 74] belongs no less than 200%.
On the same count and under the same terms, in the case of `NC(=O)c1ccc2cncc(N3CCC(O)(c4ccc(Cl)cc4)CC3)c2c1` [Example 54] it was no less than 200%.
On the same count and under the same terms, to `CCOCCOC1CCN(c2cncc3ccc(C(N)=O)nc23)CC1` [Example 2, 8-[4-(2-Ethoxyethoxy)piperidin-1-yl]-1,6-naphthyridine-2-carboxamide] belongs no less than 200%; to `NC(=O)c1ccc2cncc(N3CCC(COC(F)F)CC3)c2c1` [Example 95], no less than 200%.
Take `CC(=O)c1ccn(-c2cncc3ccc(C(N)=O)cc23)c1` [Example 48]: the activity at 0.03 µg/mL is no less than 200%.
Same read-out and setting: in the case of `COC1CCN(c2cncc3ccc(C(N)=O)cc23)CC1` [Example 76] it was no less than 200%; in that of `NC(=O)c1ccc2cncc(N3CCC(OCCOC4CCCCO4)CC3)c2c1` (stereo not drawn) [Example 19, 4-{4-[2-(Tetrahydro-2H-pyran-2-yloxy)ethoxy]piperidin-1-yl}isoquinoline-6-carboxamide], no less than 200%.
Same read-out and setting: in the case of `COCC1CCCN(c2cncc3ccc(C(N)=O)cc23)C1` (stereo not drawn) [Example 17, 4-[3-(Methoxymethyl)piperidin-1-yl]isoquinoline-6-carboxamide] it was no less than 200%.
Same read-out and setting: to `CC(=O)c1ccc(N2CCN(c3cncc4ccc(C(N)=O)cc34)CC2)cc1` [Example 50] belongs no less than 200%; to `COCC1CN(c2cncc3ccc(C(N)=O)cc23)CCO1` (stereo not drawn) [Example 105], no less than 200%.
Consider `CN(CCOC1CCN(c2cncc3ccc(C(N)=O)cc23)CC1)S(C)(=O)=O` [Example 102], for which the activity at 0.03 µg/mL is no less than 200%.
As to `CN(C)C(=O)N1CCN(c2cncc3ccc(C(N)=O)nc23)CC1` [Example 10, 8-[4-(Dimethylcarbamoyl)piperazin-1-yl]-1,6-naphthyridine-2-carboxamide], the activity at 0.03 µg/mL was no less than 200%.
Same read-out and setting: in the case of `NC(=O)c1ccc2cncc(N3CCN(c4cccc(F)c4)CC3)c2c1` [Example 60] it was no less than 200%; in that of `NC(=O)c1ccc2cncc(N3CCC(O)CC3)c2c1` [Example 89], no less than 200%; in that of `NC(=O)c1ccc2cncc(N3CCC(OCCOC4CCOCC4)CC3)c2c1` [Example 81], no less than 200%.

For another experiment, the system named is female F344 rats. Description: Effect on bone density (oophorectomy or sham surgery, femur DXA). The conditions noted are these: 3 mg/kg, orally once a day, six days a week, six to eight weeks, female F344 rats after oophorectomy or sham surgery. Type of experiment: in vivo. The method, then: Eight to 12 week old female F344 rats were purchased from Charles River Laboratories and used in the following experiment. Rats were anesthetized with an intraperitoneal administration of 40 mg/kg of Somnopentyl (Kyoritsu Seiyaku Corporation), and then oophorectomy or sham surgery was performed. From the day after surgery, a suspension of the test compound in a 0.5% methyl cellulose solution (Wako pure chemical industries, Ltd. Cat. No. 133-14255) was orally administered once a day, six days a week. Six to eight weeks after administration, the rats were euthanized by removal of whole blood from the lower abdominal aorta under Somnopentyl anesthesia, and the left and right femur was excised.
After removal of soft tissues, the bone density of the femur thus excised was measured by a DXA apparatus, DCS-600R (Aloka Co., Ltd.). The bone density was assessed in the whole femur as well as in three equal sections of the whole femur, namely the proximal end, the shaft, and the distal end.
Take `NC(=O)c1ccc2cncc(N3CCC(OCCO[C@@H]4CCOC4)CC3)c2n1` [Example 3, 8-(4-{2-[(3R)-Tetrahydrofuran-3-yloxy]ethoxy}piperidin-1-yl)-1,6-naphthyridine-2-carboxamide]: the “bone density of the femur” value is reported as “significantly increased”.
For the compound `NC(=O)c1ccc2cncc(N3CCC(OCCO[C@H]4CCOC4)CC3)c2n1` [Example 4, 8-(4-{2-[(3S)-Tetrahydrofuran-3-yloxy]ethoxy}piperidin-1-yl)-1,6-naphthyridine-2-carboxamide], the “bone density of the femur” value was “significantly increased”.
For the compound `NC(=O)c1ccc2cncc(N3CCN(c4ccccc4)CC3)c2c1` [Example 15, 4-(4-Phenylpiperazin-1-yl)isoquinoline-6-carboxamide], the “bone density of the femur” value is on record as “significantly increased”.
The same measure, in the same setting: to `Cl.NC(=O)c1ccc2cncc(N3CCC(OCCOC4CCOCC4)CC3)c2n1` [Example 7, 8-{4-[2-(Tetrahydro-2H-pyran-4-yloxy)ethoxy]piperidin-1-yl}-1,6-naphthyridine-2-carboxamide hydrochloride] belongs “significantly increased”; to `NC(=O)c1ccc2cncc(N3CCCCC3)c2n1` [Example 12, 8-Piperidin-1-yl-1,6-naphthyridine-2-carboxamide], “significantly increased”.
